Results on one compound are retold here after article PMC12698182, “Bardoxolone methyl blocks the efflux of Zn^2+ by targeting hZnT1 to inhibit the proliferation and metastasis of cervical cancer” (Protein & Cell, 2025).

Molecules are shown by their SMILES. Numbering of substitutions follows the chain as printed.

Experiment [1] has as its target T1, hZnT1 (Homo sapiens, UniProt Q9Y6M5).
T1 construct: gene SLC30A1; homodimer (ECD 271-312, CTD 345-507 visible); tags and borders only in supplement; transport assay in HEK-293F cells
T1 sequence (Q9Y6M5 1-507): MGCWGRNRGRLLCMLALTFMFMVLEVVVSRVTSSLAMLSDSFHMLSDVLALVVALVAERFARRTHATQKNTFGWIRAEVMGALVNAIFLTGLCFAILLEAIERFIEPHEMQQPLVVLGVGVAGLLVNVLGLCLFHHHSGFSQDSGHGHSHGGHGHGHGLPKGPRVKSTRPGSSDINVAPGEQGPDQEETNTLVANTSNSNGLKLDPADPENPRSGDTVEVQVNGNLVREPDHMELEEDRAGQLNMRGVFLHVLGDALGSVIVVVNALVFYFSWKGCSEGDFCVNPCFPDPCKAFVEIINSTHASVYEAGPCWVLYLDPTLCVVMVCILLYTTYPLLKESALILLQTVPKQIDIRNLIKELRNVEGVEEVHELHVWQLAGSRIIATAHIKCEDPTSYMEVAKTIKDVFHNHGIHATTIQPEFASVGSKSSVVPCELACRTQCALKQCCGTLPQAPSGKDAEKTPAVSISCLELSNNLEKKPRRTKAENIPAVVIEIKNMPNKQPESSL
Description: FluoZin-3 fluorescence Zn2+ transport assay in HEK-293F cells. The class given is cell-based.

Experiment [2] addresses T1, hZnT1. Briefly: biolayer interferometry (BLI). Particulars: read-out: binding affinity.
Experiment [3] addresses T2, hZnT1 (Homo sapiens, UniProt Q9Y6M5, I96A).
T2 construct: gene SLC30A1; homodimer (ECD 271-312, CTD 345-507 visible); tags and borders only in supplement; transport assay in HEK-293F cells
T2 sequence (Q9Y6M5 1-507 I96A): T1 sequence (Q9Y6M5 1-507) with I96A
Description: biolayer interferometry (BLI). Particulars: read-out: binding affinity.

Experiment [4] concerns the target T3, hZnT1 (Homo sapiens, UniProt Q9Y6M5, G258A).
T3 construct: gene SLC30A1; homodimer (ECD 271-312, CTD 345-507 visible); tags and borders only in supplement; transport assay in HEK-293F cells
T3 sequence (Q9Y6M5 1-507 G258A): T1 sequence (Q9Y6M5 1-507) with G258A
Briefly: biolayer interferometry (BLI). Type of experiment: binding.

Take `COC(=O)[C@]12CCC(C)(C)C[C@H]1[C@H]1C(=O)C=C3[C@@]4(C)C=C(C#N)C(=O)C(C)(C)[C@@H]4CC[C@@]3(C)[C@]1(C)CC2` [Bardoxolone methyl]: the IC50 on hZnT1 [1] was found to be 18 ± 0.92 µM. The Kd on hZnT1 [2] is 2.72 µM; on hZnT1 [3], 58.4 µM. Also, the binding affinity result at hZnT1 [4] is “the mutation of G258A directly led to the affinity to be completely undetectable”.
